Measured values taken from patent publication EP1144412B1, “IMMUNOSUPPRESSIVE EFFECTS OF PTERIDINE DERIVATIVES” (4 AZA Bioscience nv, priority 1998, dated 2000).
pIC50: −log10 of the molar value. Read-outs that look alike come from different tables or passages of the source.

Legend:
[1] = test system: Peripheral blood mononuclear cells (PBMC); assay: Mixed lymphocyte reaction (MLR), [3H]-thymidine incorporation; assay type: cell-based; details: Homo sapiens
Source text: (§1) Various models may be used for testing an immunosuppressive effect. In vivo, for example, different transplantation models are available. They are strongly influenced by different immunogenicities, depending on the donor and recipient species used and depending on the nature of the transplanted organ. The survival time of transplanted organs can thus be used to measure the suppression of the immune response. In vitro, there exist also various models. The most used are lymphocyte activation tests. Usually activation is measured via lymphocyte proliferation. Inhibition of proliferation thus always means immunosuppression under the experimental conditions applied. There exist different stimuli for lymphocyte activation: • coculture of lymphocytes of […] (MLR = mixed lymphocyte reaction): lymphocytes expressing different minor and major antigens of the HLA-DR type (= alloantigens) activate each other non-specifically. • CD3 assay: here there is an activation of the T-lymphocytes via an exogenously added antibody (OKT3). This antibody reacts against the CD3 molecule located on the lymphocyte membrane. This molecule has a costimulatory function. […] This molecule is also located on the lymphocyte membrane, and delivers strong costimulatory signals.
Peripheral blood mononuclear cells (PBMC) were isolated from heparinized peripheral blood by density gradient centrifugation over Lymphoprep (Nycomed, Maorstua, Norway). Allogeneic PBMC or EBV-transformed human B cells [RPMI1788 (ATCC name CCL156)] which strongly express B7-1 and B7-2 were used as stimulator cells after irradiation with 30 Gy. MLR was performed in triplicate wells. After 5 days incubation at 37EC, 1 µCi [^3H]-thymidine was added to each cup. After a further 16 hours incubation, cells were harvested and counted in a β-counter.
The percent suppression of proliferation by drugs was counted using the formula Percent inhibition =((cpm + drugs) - cpm Cult. Med)/((cpm - drugs) - cpm Cult. Med.)x 100 [formula]

Highly purified T cells [2] = assay: T cell proliferation induced by anti-CD3 mAb + PMA (BrdU incorporation); assay type: cell-based, Human; details: Homo sapiens, T-cell
Source text: as §1
(§2) T cells were purified by removing non-T cells. Briefly,monocytes were removed by cold agglutination. The resulting lymphoid cells were further purified by a cell enrichment immunocolumn [Cellect Human T (Biotex, Edmonton, Alberta, Canada)] by a process of negative selection.
(§3) Measurements of T cell proliferations induced by anti-CD3 mAb + PMA or anti-CD28 mAb + PMA
(§4) Highly purified T cells (10^6/ml) were stimulated by immobilized anti-CD3 àr anti-CD28 mAb in the presence of PMA. Anti-CD3 mAb (CLB-CD3; CLB, Amsterdam, The Netherlands) were fixed on the 96-microwell plates by incubating the wells with 50 µl of mAb solution (1/800 dilution in culture medium). Anti-CD28 mAb (CLB-CD28; CLB, Amsterdam, The Netherlands) 50 µl (1/650 dilution in culture medium) was added directly to the wells. Further, 20 µl PMA (Sigma, St. Louis, MO, USA) solution (final concentration: 0.5 ng/ml) was added. Subsequently, 20 µl of immunosuppressants were added by serial dilution in triplicate wells. Finally 100 µl of the T cell suspension (10^6/ml) was added. After 48-hour incubation at 37EC in 5% CO2 20 Φl BrdU (100 ΦM solution) (Cell Proliferation Elisa, Boehringer-Mannheim Belgium) was added to each well. After a further overnight incubation the T cell proliferation was measured using a colorimetric immunoassay for qualification of cell proliferation based on measurements of the incorporation of BrdU during DNAsynthesis. The optical density (OD) was measured by a Behring EL311 plate reader at 450 nm (reference wavelength: 690 nm). The percent suppression of proliferation by drugs was counted using the formula: Per cent inhibition =((OD + drugs) - (OD Cult. Med.))/((OD - drugs) - (OD Cult. Med.))x 100 [formula]

Highly purified T cells [3] = assay: T cell proliferation induced by anti-CD28 mAb + PMA (BrdU incorporation); assay type: cell-based, Human; details: Homo sapiens, T-cell
Source text: as §1, §2, §3, §4

[4] = Table II, read-out: IC50 in µM of pteridine derivative MLR
[5] = untitled structure table, no unit printed there, same values in Table II as IC50 in µM, read-out: MLR
[6] = Table II, read-out: IC50 in µM of pteridine derivative ACD3
[7] = untitled structure table, no unit printed there, same values in Table II as IC50 in µM, read-out: aCD3
[8] = Table II, read-out: IC50 in µM of pteridine derivative aCD28
[9] = untitled structure table, no unit printed there, same values in Table II as IC50 in µM, read-out: aCD28
[10] = Table IV, known pteridine derivatives, IC50 subranges, read-out: MLR
[11] = Table IV, known pteridine derivatives, IC50 subranges, read-out: aCD3
[12] = Table IV, known pteridine derivatives, IC50 subranges, read-out: aCD28

Structure (SMILES) | IC50 [1, 4] | IC50 [1, 5] | IC50 (Highly purified T cells [2]; [6]) | IC50 (Highly purified T cells [2]; [7]) | IC50 (Highly purified T cells [3]; [8]) | IC50 (Highly purified T cells [3]; [9]) | pIC50 [1, 10] | pIC50 (Highly purified T cells [2]; [11]) | pIC50 (Highly purified T cells [3]; [12]) | pIC50 ([1]; Table III, comparison immunosuppressants, read-out: IC50 MLR) | pIC50 (Highly purified T cells [2]; Table III, comparison immunosuppressants, read-out: IC50 aCD3) | pIC50 (Highly purified T cells [3]; Table III, comparison immunosuppressants, read-out: IC50 aCD28)
COc1ccc(-c2cnc3nc(N)nc(N4CCN(C)CC4)c3n2)cc1OC [Compound 44] | 2 µM | 2 µM | 7.3 µM | 7.3 µM | 6.5 µM | 6.5 µM |  |  |  |  |  | 
CN(C)Cc1cnc2nc(N)nc(N)c2n1 [Compound 20, 2,4-diamino-6-dimethyl aminomethyl pteridine] | > 200 µM | > 200 µM | 170 µM | 170 µM | 100 µM | 100 µM |  |  |  |  |  | 
COc1ccc(-c2cnc3nc(N)nc(N(C)C)c3n2)cc1 [Compound 16, 2-amino-4-dimethylamino-6-(4-methoxyphenyl)pteridine] | 12 µM | 12 µM | 7.5 µM | 7.5 µM | 7.5 µM | 7.5 µM |  |  |  |  |  | 
COc1ccc(-c2cnc3nc(NCCO)nc(N)c3n2)cc1 [Compound 12, 2-hydroxyethylamino-4-amino-6-(4-methoxyphenyl)pteridine] | > 200 µM | > 200 µM | > 200 µM | > 200 µM | 160 µM | 160 µM |  |  |  |  |  | 
Nc1nc(N(Cc2ccccc2)Cc2ccccc2)c2nc(-c3ccccc3)cnc2n1 [Compound 25, 2-amino-4-dibenzylamino-6-phenyl pteridine] | 75 µM | 75 µM | 25 µM | 25 µM | 25 µM | 25 µM |  |  |  |  |  | 
Nc1nc(N2CCCCC2)c2nc(-c3ccc(Cl)cc3)cnc2n1 [Compound 38, 2-amino-4-piperidino-6-(4-chlorophenyl)pteridine] | 15 µM | 15 µM | 70 µM | 70 µM | 25 µM | 25 µM |  |  |  |  |  | 
COCc1cnc2nc(N)nc(N)c2n1 [CH2 O CH3, reference compound] |  |  |  |  |  |  | < 3.82 | < 3.82 | < 3.82 |  |  | 
COc1ccc(-c2cnc3nc(N)nc(N4CCN(C)CC4)c3n2)cc1 [Compound 43, 2-amino-4-N-methylpiperazino-6-(4-methoxyphenyl)pteridine] | 12.3 µM | 12.3 µM | 11.7 µM | 11.7 µM | 4.2 µM | 4.2 µM |  |  |  |  |  | 
Cc1oncc1C(=O)Nc1ccc(C(F)(F)F)cc1 [Leflunomide, reference compound] |  |  |  |  |  |  |  |  |  | 4.60 | 4.82 | 4.70
COc1nc(N)nc2ncc(C(O)C(C)O)nc12 (stereo not drawn) [Compound 4, 2-amino-4-methoxy-6-(1,2-dihydroxypropyl)pteridine] | > 200 µM | > 200 µM | 140 µM | 140 µM | 110 µM | 110 µM |  |  |  |  |  | 
CCOCc1cnc2nc(N)[nH]c(=O)c2n1 [CH2OC2H5, reference compound] |  |  |  |  |  |  | < 3.82 | < 3.82 | < 3.82 |  |  | 
CCCN(CCC)c1nc(N)nc2ncc(-c3ccc(OC)cc3)nc12 [Compound 31, 2-amino-4-dipropylamino-6-(4-methoxyphenyl)pteridine] | 8.5 µM | 8.5 µM | 5.7 µM | 5.7 µM | 2.8 µM | 2.8 µM |  |  |  |  |  | 
